This note sets out measurements from patent publication US6750008B1, “Methods and compositions for inhibition of membrane fusion-associated events, including HIV transmission” (priority 1999, dated 2004).

Usually IC90 stands for the point of the concentration-response curve where the effect stands at 90%. A higher IC90 goes with weaker potency.

The test system of assay [1] is HIV-1IIIB chronically infected CEM cells. The class given is cell-based. The settings on record: 10 nM. On the procedure: Cell fusion assays were performed as previously described (Matthews et al., 1987, Proc. Natl. Acad. Sci. USA 84: […]). CEM cells (7×10^4) were incubated with HIV-1IIIB chronically infected CEM cells (10^4) in 96-well flat-bottomed half-area plates (Costar) in 100 μl culture medium. Peptide and fusion proteins at various concentrations in 10 μl culture medium were incubated with the cell mixtures at 37° C. for 24 hours. Multinucleated syncytia were estimated with microscopic examination.
No peptide or fusion protein was added in the control samples.

In another assay the test system is HIV-1IIIB. Format: cell-based.
Another assay relates to HIV-1/IIIb. Kind of assay: Anti-HIV assays of DP107/DP178 truncations and mutations. As to conditions: worded 'results shown are for 4 ng/ml'. The class given is cell-based. An excerpt: Anti-HIV assays: The antiviral assays performed were as those described, above, in Section 6.1. Assays utilized HIV-1/IIIb and/or HIV-2 NIHZ isolates. Purified peptides were used, unless otherwise noted in FIGS. 49A-C.

The next assay has as its system Fab-d. Kind of assay: ELISA analysis of DP178 binding to the leucine zipper motif of gp41 (Fab-d ELISA). Also noted: species or system human. As to conditions: reagent alone. As to the method:
The amino acid sequence of DP178 used is: […]. […] Each well was washed three times with distilled water then blocked with 3% bovine serum albumin (BSA) for 2 hours. After blocking, peptides with 0.5% BSA in TBST (40 mM Tris-HCl pH7.5, 150 mM NaCl, 0.05% Tween 20) were added to the ELISA plates and incubated at room temperature for 1 hour. After washing three times with TBST, Fab-d was added at a concentration of 10 ng/ml with 0.5% BSA in TBST. The plates were washed three times with TBST after incubation at room temperature for 1 hour. Horse radish peroxidase (HRP) conjugated goat antihuman Fab antiserum at a 2000 fold dilution in TBST with 0.5% BSA was added to each well and incubated at room temperature for 45 minutes. The plates were then washed four times with TBST. The peroxidase substrate o-phenylene diamine (2.5 mg/ml) and 0.15% H2O2 were added to develop the color. The reaction was stopped with an equal volume of 4.5 N H2SO4 after incubation at room temperature for 10 minutes. The optical density of the stopped reaction mixture was measured with a micro plate reader (Molecular Design) at 490 nm.

The subject of assay [2] is HIV-1LAI virus. On the procedure:
(§1) Synthetic peptides were incubated at 37° C. with either 247 TCID50 (for experiment depicted in FIG. 2), or 62 TCID50 (for experiment depicted in FIG. 3) units of HIV-1LAI virus or 25 TCID50 units of HIV-2NIHZ and CEM CD4^+ cells at peptide concentrations of 0, 0.04, 0.4, 4.0, and 40 μg/ml for 7 days. The resulting reverse transcriptase (RT) activity in counts per minute was determined using the assay described, below, in Section 6.1.5. See Reed, L. J. et al., 1938, Am. J. Hyg. 27: 493-497 for an explanation of TCID50 calculations.
(§2) The micro-reverse transcriptase (RT) assay was adapted from Goff et al. (Goff, S. et al., 1981, J. Virol. 38:239-248) and Willey et al. (Willey, R. et al., 1988, J. Virol. 62:139-147). Supernatants from virus/cell cultures are adjusted to 1% Triton-X100. A 10 μl sample of supernatant was added to 50 μl of RT cocktail in a 96-well U-bottom microtitre plate and the samples incubated at 37° C. for 90 min. The RT cocktail contained 75 mM KCl, 2 mM dithiothreitol, 5 mM MgCl2, 5 μg/ml poly A (Pharmacia, cat. No. 27-4110-01), 0.25 units/ml oligo dT (Pharmacia, cat. No. 27-7858-01), 0.05% NP40, 50 mM Tris-HCl, pH 7.8, 0.5 μM non-radioactive dTTP, and 10 μCi/ml ^32P-dTTP (Amersham, cat. No. PB.10167).
After the incubation period, 40 μl of reaction mixture was applied to a Schleicher and Schuell (S+S) NA45 membrane (or DE81 paper) saturated in 2×SSC buffer (0.3M NaCl and 0.003M sodium citrate) held in a S+S Minifold over one sheet of GB003 (S+S) filter paper, with partial vacuum applied. Each well of the minifold was washed four times with 200 μl 2×SSC, under full vacuum. The membrane was removed from the minifold and washed 2 more times in a pyrex dish with an excess of 2×SSC. Finally, the membrane was drained on absorbent paper, placed on Whatman #3 paper, covered with Saran wrap, and exposed to film overnight at −70° C.
DP178 (SEQ ID:1) was next tested for its ability to block CD-4^+ CEM cell infection by cell free HIV-1 virus. […]

The next assay relates to HIV-2NIHZ. Kind of assay: Cell free virus infection assay (RT production). Format: cell-based. The settings on record: 25 TCID50 HIV-2NIHZ, CEM cells, 7 days. As to the method:
as §1
as §2, with “PB.10167). […]” for “PB.10167).”

Assay [3] concerns HIV-1LAI virus. Kind of assay: Cell fusion assay (HIV-1 induced syncytia formation). The class given is cell-based. An excerpt:
The results of several such experiments are presented herein.

Another assay deals with HIV-2. Kind of assay: Fusion inhibition assay, HIV-2 mediated syncytia formation. Format: cell-based. As to conditions: FIG. 5.

Consider Enfuvirtide, for which the “syncytia in HIV-1 induced cell-cell fusion” value in assay [1] is listed as “not observable syncytia”. In the assay on HIV-1IIIB, this substance registered an IC90 of 80 nM. Further, the “anti-HIV antiviral data, results shown (FIGS. 49A-C)” value in the assay with HIV-1/IIIb was 4 ng/mL. In addition, the “binding of Fab-d” value with Fab-d is recorded as “failed to bind”. The “IC50, inhibition of RT production” value with HIV-1LAI virus [2] (62 TCID50 HIV-1LAI, CEM cells, 7 days) is reported as “about 31 ng/ml”. In the assay on HIV-1LAI virus [2] (cell free virus infection), the “potency as HIV-1 inhibitor relative to HIV-2 inhibitor” value is listed as “two logs more potent”. In the assay with HIV-2NIHZ, the “IC50 for HIV-2NIHZ” value was “much higher”. For the same substance, the “selectivity as inhibitor of HIV-1-mediated over HIV-2 mediated cell fusion” value with HIV-1LAI virus [3] stood at 4 log. Further, the “peptide concentration blocking HIV-1-mediated syncytia formation” value with HIV-1LAI virus [3] (FIG. 5, HIV-1 vs HIV-2) is on record as “below 1 ng/ml”. Also, in the assay on HIV-1LAI virus [3] (HIV-1LAI), the “complete protection against syncytium formation down to lowest concentration tested” value was ≤ 12.5 ng/mL. For the same substance, in the assay on HIV-1LAI virus [3] (Molt cells + chronically HIV-1 infected CEM cells, 24 hr), the “lowest effective inhibitory concentration, complete block of virus induced syncytia formation” value is 1 to 10 ng/mL. Besides, the “complete protection against syncytium formation down to lowest concentration used” value in the assay on HIV-1LAI virus [3] (all other HIV-1 viruses (HIV-1MN, HIV-1RF, HIV-1SF2)) was ≤ 100 ng/mL. Also, in the assay on HIV-2, the “concentration failing to block HIV-2 mediated syncytia formation” value was > 10 µg/mL.
